# Assay results from the OligoGym collection.
# HELM strings list units from the 5' end as sugar, base in round brackets, then linkage (d deoxyribose, r ribose, m 2'-O-methyl, p phosphodiester). Strings are as the collection lists them; they lack the last nucleoside at the 3' end of the tested compound. [moe] = 2'-O-(2-methoxyethyl) (MOE); [sp] = phosphorothioate linkage; [m5C] = 5-methylcytosine
# Target: APP
# Experiment: mouse, dose not given
# Conditions: ASO
row,Substance,3 h FOB score [score 0-7]
1,RNA1{[moe](G)[sp].[moe](T)p.[moe](G)p.[moe](A)p.[moe]([m5C])[sp].d(T)[sp].d(T)[sp].d(A)[sp].d(T)[sp].d(A)[sp].d([m5C])[sp].d(T)[sp].d([m5C])[sp].d(A)[sp].d(A)[sp].[moe](T)p.[moe](G)p.[moe](A)[sp].[moe]([m5C])}$$$$ (last 3' nucleoside missing),0
2,RNA1{[moe](A)[sp].[moe](G)p.[moe](T)p.[moe](A)p.[moe]([m5C])[sp].d(A)[sp].d(T)[sp].d(A)[sp].d(T)[sp].d(T)[sp].d([m5C])[sp].d(A)[sp].d(T)[sp].d(T)[sp].d([m5C])[sp].[moe](A)p.[moe](A)p.[moe](T)[sp].[moe]([m5C])}$$$$ (last 3' nucleoside missing),0
3,RNA1{[moe](G)[sp].[moe](A)p.[moe](A)p.[moe]([m5C])p.[moe](T)[sp].d([m5C])[sp].d(G)[sp].d(A)[sp].d(A)[sp].d([m5C])[sp].d([m5C])[sp].d(A)[sp].d([m5C])[sp].d([m5C])[sp].d(T)[sp].[moe]([m5C])p.[moe](T)p.[moe](T)[sp].[moe]([m5C])}$$$$ (last 3' nucleoside missing),1
4,RNA1{[moe]([m5C])[sp].[moe](A)p.[moe](T)p.[moe](G)p.[moe](A)[sp].d(G)[sp].d(T)[sp].d([m5C])[sp].d([m5C])[sp].d(A)[sp].d(A)[sp].d(T)[sp].d(G)[sp].d(A)[sp].d(T)[sp].[moe](T)p.[moe](G)p.[moe]([m5C])[sp].[moe](A)}$$$$ (last 3' nucleoside missing),5.5
5,RNA1{[moe](T)[sp].[moe]([m5C])p.[moe](T)p.[moe](G)p.[moe](A)[sp].d(T)[sp].d(A)[sp].d(T)[sp].d(T)[sp].d([m5C])[sp].d(A)[sp].d([m5C])[sp].d(T)[sp].d(T)[sp].d(A)[sp].[moe](T)p.[moe]([m5C])p.[moe](T)[sp].[moe](G)}$$$$ (last 3' nucleoside missing),0
6,RNA1{[moe](G)[sp].[moe]([m5C])p.[moe](A)p.[moe](T)p.[moe](T)[sp].d([m5C])[sp].d(A)[sp].d([m5C])[sp].d(A)[sp].d(A)[sp].d([m5C])[sp].d(A)[sp].d([m5C])[sp].d(A)[sp].d([m5C])[sp].[moe](A)p.[moe](T)p.[moe]([m5C])[sp].[moe]([m5C])}$$$$ (last 3' nucleoside missing),0.67
7,RNA1{[moe]([m5C])[sp].[moe]([m5C])p.[moe](A)p.[moe](T)p.[moe]([m5C])[sp].d(T)[sp].d(T)[sp].d(T)[sp].d(A)[sp].d(T)[sp].d(T)[sp].d([m5C])[sp].d(T)[sp].d(A)[sp].d(T)[sp].[moe](G)p.[moe](A)p.[moe](G)[sp].[moe]([m5C])}$$$$ (last 3' nucleoside missing),0.75
8,RNA1{[moe](A)[sp].[moe]([m5C])p.[moe](T)p.[moe]([m5C])p.[moe](A)[sp].d([m5C])[sp].d(A)[sp].d([m5C])[sp].d(A)[sp].d([m5C])[sp].d(T)[sp].d(G)[sp].d(T)[sp].d(T)[sp].d(T)[sp].[moe]([m5C])p.[moe](A)p.[moe](A)[sp].[moe](G)}$$$$ (last 3' nucleoside missing),2.67
9,RNA1{[moe](A)[sp].[moe](G)p.[moe](A)p.[moe](T)p.[moe](A)[sp].d([m5C])[sp].d(T)[sp].d(T)[sp].d(G)[sp].d(T)[sp].d([m5C])[sp].d(A)[sp].d(A)[sp].d([m5C])[sp].d(G)[sp].[moe](G)p.[moe]([m5C])p.[moe](A)[sp].[moe](T)}$$$$ (last 3' nucleoside missing),2.33
10,RNA1{[moe](A)[sp].[moe]([m5C])p.[moe](A)p.[moe]([m5C])p.[moe]([m5C])[sp].d(G)[sp].d([m5C])[sp].d([m5C])[sp].d([m5C])[sp].d(A)[sp].d([m5C])[sp].d([m5C])[sp].d(A)[sp].d(T)[sp].d(G)[sp].[moe](A)p.[moe](G)p.[moe](T)[sp].[moe]([m5C])}$$$$ (last 3' nucleoside missing),1
11,RNA1{[moe](G)[sp].[moe]([m5C])p.[moe](A)p.[moe](G)p.[moe](T)[sp].d([m5C])[sp].d(A)[sp].d(A)[sp].d(T)[sp].d([m5C])[sp].d(A)[sp].d(A)[sp].d([m5C])[sp].d(T)[sp].d([m5C])[sp].[moe]([m5C])p.[moe](A)p.[moe](A)[sp].[moe]([m5C])}$$$$ (last 3' nucleoside missing),0
12,RNA1{[moe]([m5C])[sp].[moe]([m5C])[sp].[moe]([m5C])p.[moe](A)p.[moe]([m5C])[sp].d(T)[sp].d(T)[sp].d([m5C])[sp].d([m5C])[sp].d([m5C])[sp].d(A)[sp].d(T)[sp].d(T)[sp].d([m5C])[sp].d(T)[sp].[moe](G)p.[moe](G)p.[moe](A)[sp].[moe]([m5C])}$$$$ (last 3' nucleoside missing),0
13,RNA1{[moe]([m5C])[sp].[moe](A)[sp].[moe](T)p.[moe]([m5C])p.[moe](A)[sp].d([m5C])[sp].d(T)[sp].d(T)[sp].d(A)[sp].d([m5C])[sp].d(A)[sp].d(A)[sp].d(A)[sp].d([m5C])[sp].d(T)[sp].[moe]([m5C])p.[moe](A)p.[moe]([m5C])[sp].[moe]([m5C])}$$$$ (last 3' nucleoside missing),0
14,RNA1{[moe](G)[sp].[moe]([m5C])p.[moe](T)p.[moe]([m5C])p.[moe](A)[sp].d(T)[sp].d(T)[sp].d(T)[sp].d(T)[sp].d(T)[sp].d(T)[sp].d(T)[sp].d(T)[sp].d(A)[sp].d([m5C])[sp].[moe](A)p.[moe](T)p.[moe](G)[sp].[moe](A)}$$$$ (last 3' nucleoside missing),0
15,RNA1{[moe](G)[sp].[moe](A)p.[moe](A)p.[moe](G)p.[moe]([m5C])[sp].d(T)[sp].d(T)[sp].d(A)[sp].d([m5C])[sp].d(A)[sp].d(T)[sp].d([m5C])[sp].d(A)[sp].d(T)[sp].d(T)[sp].[moe](T)p.[moe](T)p.[moe]([m5C])[sp].[moe](T)}$$$$ (last 3' nucleoside missing),0
16,RNA1{[moe](G)[sp].[moe](T)p.[moe](T)p.[moe](T)p.[moe]([m5C])[sp].d(A)[sp].d(G)[sp].d(T)[sp].d(A)[sp].d(T)[sp].d(A)[sp].d(T)[sp].d(T)[sp].d([m5C])[sp].d(T)[sp].[moe]([m5C])p.[moe](T)p.[moe](G)[sp].[moe]([m5C])}$$$$ (last 3' nucleoside missing),0
17,RNA1{[moe](G)[sp].[moe](T)p.[moe](A)p.[moe]([m5C])p.[moe](T)[sp].d(G)[sp].d(T)[sp].d(T)[sp].d(T)[sp].d([m5C])[sp].d(T)[sp].d(T)[sp].d([m5C])[sp].d(T)[sp].d(T)[sp].[moe]([m5C])p.[moe](A)p.[moe](G)[sp].[moe]([m5C])}$$$$ (last 3' nucleoside missing),2
18,RNA1{[moe](T)[sp].[moe](G)p.[moe](G)p.[moe](G)p.[moe]([m5C])[sp].d(A)[sp].d(T)[sp].d([m5C])[sp].d(A)[sp].d(T)[sp].d(T)[sp].d(T)[sp].d(T)[sp].d(T)[sp].d(G)[sp].[moe]([m5C])p.[moe](T)p.[moe]([m5C])[sp].[moe]([m5C])}$$$$ (last 3' nucleoside missing),0
